Measurements as given in ChEMBL document CHEMBL3098059, “Identification by in silico and in vitro screenings of small organic molecules acting as reversible inhibitors of kallikreins” (Eur J Med Chem, 2013).
Calls of active or inactive are those of the source. The rule behind the calls is not given here.

Columns and labels:
Kallikrein-7 [1] = target: T1, Kallikrein-7 (Homo sapiens, UniProt P49862); experiment: Reversible inhibition of human kallikrein7 using Suc-Leu-Leu-Val-Tyr-AMC as substrate after 15 to 60 mins by fluorescence assay
Target sequence in this assay (P49862 30-253 limits assumed): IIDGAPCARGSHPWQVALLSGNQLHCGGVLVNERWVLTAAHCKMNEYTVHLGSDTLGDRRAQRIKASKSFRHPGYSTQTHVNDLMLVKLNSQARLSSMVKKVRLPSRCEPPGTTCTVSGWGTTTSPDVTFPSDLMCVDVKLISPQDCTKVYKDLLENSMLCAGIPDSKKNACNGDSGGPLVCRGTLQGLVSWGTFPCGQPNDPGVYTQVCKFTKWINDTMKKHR

Kallikrein-7 [2] = target: T1, Kallikrein-7; experiment: Inhibition of human kallikrein7 using Suc-Leu-Leu-Val-Tyr-AMC as substrate at 50 uM after 15 mins by fluorescence assay
Target sequence in this assay (P49862 30-253 limits assumed): as above

[3] = target: T2, Kallikrein-14 (Homo sapiens) (UniProt Q9P0G3); experiment: Inhibition of human kallikrein14 using Boc-Val-Pro-Arg-AMC as substrate at 50 uM after 15 mins by fluorescence assay
T2 sequence (whole entry): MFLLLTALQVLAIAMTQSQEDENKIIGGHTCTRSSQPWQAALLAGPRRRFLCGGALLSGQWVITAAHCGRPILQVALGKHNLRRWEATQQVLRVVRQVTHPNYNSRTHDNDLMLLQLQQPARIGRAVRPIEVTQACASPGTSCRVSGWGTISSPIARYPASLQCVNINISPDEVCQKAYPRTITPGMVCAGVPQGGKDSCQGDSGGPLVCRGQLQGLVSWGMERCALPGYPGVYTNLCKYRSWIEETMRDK

[4] = target: Kallikrein-5 (Homo sapiens) (UniProt Q9Y337); experiment: Inhibition of human kallikrein5 using Boc-Val-Pro-Arg-AMC as substrate at 50 uM after 15 mins by fluorescence assay
[5] = target: T3, Suppressor of tumorigenicity 14 protein (Homo sapiens) (UniProt Q9Y5Y6); experiment: Inhibition of matriptase (unknown origin) using Boc-Gln-Ala-Arg-AMC as substrate at 50 uM after 15 mins by fluorescence assay
T3 sequence (whole entry): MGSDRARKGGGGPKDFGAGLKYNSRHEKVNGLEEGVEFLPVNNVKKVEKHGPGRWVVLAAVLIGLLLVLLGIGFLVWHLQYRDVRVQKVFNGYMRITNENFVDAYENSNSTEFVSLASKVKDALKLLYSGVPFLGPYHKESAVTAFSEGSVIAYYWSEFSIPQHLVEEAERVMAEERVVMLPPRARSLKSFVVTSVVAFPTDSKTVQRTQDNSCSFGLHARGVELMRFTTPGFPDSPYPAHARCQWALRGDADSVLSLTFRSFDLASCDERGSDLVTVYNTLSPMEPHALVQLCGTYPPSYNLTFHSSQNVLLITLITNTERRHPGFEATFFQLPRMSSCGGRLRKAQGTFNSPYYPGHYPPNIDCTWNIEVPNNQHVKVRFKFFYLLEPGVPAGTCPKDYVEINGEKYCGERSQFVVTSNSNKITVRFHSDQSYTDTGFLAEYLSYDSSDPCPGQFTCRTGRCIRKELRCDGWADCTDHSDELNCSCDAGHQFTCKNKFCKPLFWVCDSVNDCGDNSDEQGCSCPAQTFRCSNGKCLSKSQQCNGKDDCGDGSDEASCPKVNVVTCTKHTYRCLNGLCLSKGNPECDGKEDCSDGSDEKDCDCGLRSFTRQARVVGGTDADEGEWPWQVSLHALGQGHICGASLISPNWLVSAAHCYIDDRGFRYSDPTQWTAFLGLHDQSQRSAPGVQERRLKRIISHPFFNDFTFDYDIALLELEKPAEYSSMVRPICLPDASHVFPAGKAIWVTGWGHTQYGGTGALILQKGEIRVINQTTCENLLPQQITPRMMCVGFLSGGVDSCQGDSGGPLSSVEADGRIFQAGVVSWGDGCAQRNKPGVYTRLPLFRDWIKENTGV

[6] = target: T3, Suppressor of tumorigenicity 14 protein (Homo sapiens); experiment: Reversible inhibition of matriptase (unknown origin) using Boc-Gln-Ala-Arg-AMC as substrate after 15 to 60 mins by fluorescence assay
[7] = target: Kallikrein-5 (Homo sapiens) (UniProt Q9Y337); experiment: Reversible inhibition of human kallikrein5 using Boc-Val-Pro-Arg-AMC as substrate after 15 to 60 mins by fluorescence assay
[8] = target: T2, Kallikrein-14 (Homo sapiens); experiment: Reversible inhibition of human kallikrein14 using Boc-Val-Pro-Arg-AMC as substrate after 15 to 60 mins by fluorescence assay
[9] = Cytotoxicity against human keratinocytes assessed as cell viability at 10 uM after 24 to 48 hrs by neutral red assay; type: cell-based, Keratinocyte; conditions: for Activity: keratinocyte, 10 µM
Kallikrein-7 [10] = target: T1, Kallikrein-7; experiment: Inhibition of human kallikrein7 using Suc-Leu-Leu-Val-Tyr-AMC as substrate after 15 mins by fluorescence assay
Target sequence in this assay (P49862 whole entry): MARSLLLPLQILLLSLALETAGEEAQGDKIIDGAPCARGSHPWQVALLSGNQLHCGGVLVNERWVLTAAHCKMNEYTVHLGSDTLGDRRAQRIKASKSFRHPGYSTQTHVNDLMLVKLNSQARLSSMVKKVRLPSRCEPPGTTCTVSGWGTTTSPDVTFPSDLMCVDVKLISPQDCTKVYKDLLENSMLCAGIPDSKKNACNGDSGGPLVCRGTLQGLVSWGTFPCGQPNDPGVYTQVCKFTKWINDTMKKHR

[11] = target: T4, Suppressor of tumorigenicity 14 protein (Homo sapiens, UniProt Q9Y5Y6); experiment: Inhibition of matriptase (unknown origin) using Boc-Gln-Ala-Arg-AMC as substrate after 15 mins by fluorescence assay
T4 sequence (Q9Y5Y6 whole entry): T3 sequence (whole entry)

Kallikrein-5 [12] = target: T5, Kallikrein-5 (Homo sapiens, UniProt Q9Y337); experiment: Competitive inhibition of human kallikrein5 using Boc-Val-Pro-Arg-AMC as substrate after 15 to 60 mins by Lineweaver-Burk/Eadie-Hofstee plot analysis
T5 sequence (Q9Y337 whole entry): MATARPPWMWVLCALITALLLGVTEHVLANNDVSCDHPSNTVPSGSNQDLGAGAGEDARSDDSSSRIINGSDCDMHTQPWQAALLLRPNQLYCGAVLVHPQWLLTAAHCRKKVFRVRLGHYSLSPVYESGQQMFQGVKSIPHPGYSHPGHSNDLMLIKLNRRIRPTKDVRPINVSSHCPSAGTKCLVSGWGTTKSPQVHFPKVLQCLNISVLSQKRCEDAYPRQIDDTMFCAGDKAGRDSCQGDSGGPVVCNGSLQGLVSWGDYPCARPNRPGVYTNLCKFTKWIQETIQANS

Kallikrein-7 [13] = target: T1, Kallikrein-7; experiment: Mixed-type inhibition of human kallikrein7 using Suc-Leu-Leu-Val-Tyr-AMC as substrate assessed as enzyme-substrate-inhibitor complex after 15 to 60 mins by Lineweaver-Burk/Eadie-Hofstee plot analysis
Target sequence in this assay (P49862 whole entry): as the sequence (P49862 whole entry) above

Kallikrein-5 [14] = target: T5, Kallikrein-5; experiment: Inhibition of human kallikrein5 using Boc-Val-Pro-Arg-AMC as substrate after 15 mins by fluorescence assay
[15] = Cytotoxicity against human keratinocytes assessed as cell viability at 100 uM after 24 to 48 hrs by neutral red assay; type: cell-based; conditions: keratinocyte
Kallikrein-14 = target: T6, Kallikrein-14 (Homo sapiens, UniProt Q9P0G3); experiment: Inhibition of human kallikrein14 using Boc-Val-Pro-Arg-AMC as substrate after 15 mins by fluorescence assay
T6 sequence (Q9P0G3 whole entry): T2 sequence (whole entry)

Kallikrein-7 [16] = target: T1, Kallikrein-7; experiment: Ratio of Ki for mixed-type inhibition of human kallikrein7 assessed as enzyme-substrate-inhibitor complex to Ki for mixed-type inhibition of human kallikrein7 assessed as enzyme-inhibitor complex
Target sequence in this assay (P49862 30-253 limits assumed): as the sequence (P49862 30-253 limits assumed) above

Kallikrein-7 [17] = target: T1, Kallikrein-7; experiment: Mixed-type inhibition of human kallikrein7 using Suc-Leu-Leu-Val-Tyr-AMC as substrate assessed as enzyme-inhibitor complex after 15 to 60 mins by Lineweaver-Burk/Eadie-Hofstee plot analysis
Target sequence in this assay (P49862 whole entry): as the sequence (P49862 whole entry) above

[18] = Cytotoxicity against human keratinocytes assessed as cell viability at 1 uM after 24 to 48 hrs by neutral red assay; type: cell-based; conditions: keratinocyte
[19] = target: Kallikrein-5 (Homo sapiens) (UniProt Q9Y337); experiment: Competitive inhibition of human kallikrein5 using Boc-Val-Pro-Arg-AMC as substrate at 50 uM after 15 to 60 mins by Lineweaver-Burk/Eadie-Hofstee plot analysis

Structure (SMILES)	inhibition (Kallikrein-7 [1])	inhibition (Kallikrein-7 [2]) [%]	inhibition [3] [%]	inhibition [4] [%]	inhibition [5] [%]	inhibition [6]	inhibition [7]	inhibition [8]	Activity [9]	IC50 (Kallikrein-7 [10]) [µM]	IC50 [11] [µM]	Ki (Kallikrein-5 [12]) [µM]	Ki (Kallikrein-7 [13]) [µM]	IC50 (Kallikrein-5 [14]) [µM]	IC50 (Kallikrein-14) [µM]	Ratio Ki (Kallikrein-7 [16])	Ki (Kallikrein-7 [17]) [µM]	Activity [18]	other results
CCOc1cccc(NC(=O)/C(C#N)=C\c2ccc(O)cc2)c1	Active	< 30	< 30	< 30	< 30	Active	Active	Active	–	–	–	–	–	–	–	–	–	–	–
CCOc1ccc(/C=C(/C#N)C(=O)Nc2ccc(O)cc2)cc1OC	Active	< 30	< 30	< 30	< 30	Active	Active	Active	–	–	–	–	–	–	–	–	–	–	–
COc1cc(/C=C(/C#N)c2nc3ccccc3[nH]2)ccc1OCC(=O)N1CCOCC1	Active	–	–	–	–	Active	Active	Active	Non-toxic	83	128	121	131	125	108	2	55	Non-toxic	Activity [15]: Non-toxic
COc1ccc(NC(=O)/C(C#N)=C\c2ccc(O)c(OC)c2)cc1	Active	–	–	–	–	Active	Active	Active	–	90	120	100	164	127	99	2	72	–	–
CCOc1cc(/C=C(/C#N)C(=O)Nc2ccc(O)cc2)ccc1OC	Active	< 30	< 30	< 30	< 30	Active	Active	Active	–	–	–	–	–	–	–	–	–	–	–
CCOc1cc(/C=C(/C#N)C(=O)Nc2ccc(O)cc2)ccc1O	Active	–	–	–	–	Active	Active	Active	Non-toxic	94	98	107	152	117	101	2	75	Non-toxic	–
COc1cc(/C=C(/C#N)c2nc3ccccc3[nH]2)ccc1OCc1ccccc1	Active	< 30	< 30	< 30	< 30	Active	Active	Active	–	–	–	–	–	–	–	–	–	–	–
COc1cc(/C=C(/C#N)C(=O)Nc2ccc(O)cc2)ccc1O	Active	–	–	–	–	Active	Active	Active	–	107	111	112	129	131	106	2	70	–	–
COc1ccc(/C=C/C(=O)c2ccc(O)cc2)cc1COc1ccc(Cl)cc1	Active	< 30	–	< 30	–	Active	Active	Active	–	–	138	–	–	–	122	–	–	–	viability at 10 µM ([9]; keratinocytes, read-out: Activity): 30%
COc1ccc(/C=C2/SC(=O)N(CNc3cc(F)ccc3C)C2=O)cc1OC	Active	–	–	–	–	Active	Active	Active	Non-toxic	106	103	95	166	117	112	2	83	Non-toxic	–
CNC(=O)c1ccc(Nc2nnc(-c3ccc(O)cc3)c3ccccc23)cc1	Active	–	–	< 30	< 30	Active	Active	Active	Non-toxic	66	–	–	166	–	96	2	50	Non-toxic	inhibition [19]: < 30%
CCOc1cccc(NC(=O)/C(C#N)=C\c2ccc(OCC(=O)O)c(OC)c2)c1	Active	–	–	< 30	–	Active	Active	Active	Non-toxic	113	75	–	140	–	87	2	95	Non-toxic	inhibition [19]: < 30%
O=c1c2ccccc2nc(CSc2[nH]cnc3ncnc2-3)n1-c1cccc(C(F)(F)F)c1	Active	< 30	< 30	< 30	< 30	Active	Active	Active	–	–	–	–	–	–	–	–	–	–	–
CCOc1cccc(NC(=O)/C(C#N)=C\c2ccc(O)c(OC)c2)c1	Active	< 30	< 30	< 30	< 30	Active	Active	Active	–	–	–	–	–	–	–	–	–	–	–
O=c1c2ccccc2nc(CSc2ccccn2)n1-c1cccc(C(F)(F)F)c1	Active	< 30	< 30	< 30	< 30	Active	Active	Active	–	–	–	–	–	–	–	–	–	–	–
